Patent US6953812B2, “Glucagon antagonists/inverse agonists” (Novo Nordisk, Inc., priority 2000, dated 2005)

Legend:
human glucagon receptor = biological target: T1, human glucagon receptor (Homo sapiens, UniProt P47871); test: Glucagon Binding Assay (II); details: membranes of BHK cells transfected with human glucagon receptor, 125I-glucagon, SPA; read-out: Glu Bd Assay (II) IC50
T1 construct: expressed in transfected cells; host or cells: BHK (baby hamster kidney) cells, membrane preparation
Protocol: Glucagon Binding Assay (II)
BHK (baby hamster kidney cell line) cells are transfected with the human glucagon receptor and a membrane preparation of the cells is prepared.
All steps in the membrane preparation are kept on ice or performed at 4° C. BHK cells are harvested and centrifuged. The pellet is resuspended in homogenisation buffer (25 mM HEPES, pH=7.4, 2.5 mM CaCl2, 1.0 mM MgCl2, 250 mg/L bacitracin, 0.1 mM Pefabloc), homogenised 2×10 sec using Polytron 10-35 homogenizer (Kinematica) and added the same amount of homogenisation buffer as used for resuspension. After centrifugation (15 min at 2000×g) the supernatant is transferred to cold centrifuge tubes and centrifuged for 45 min at 40.000×g. The pellet is resuspended in homogenisation buffer, homogenised 2×10 sec (Polytron) and additional homogenisation buffer is added. The suspension is centrifuged for 45 min at 40.000×g and the pellet is resuspended in resuspension buffer (25 mM HEPES, pH=7.4, 2.5 mM CaCl2, 1.0 mM MgCl2) and homogenised 2×10 sec. (Polytron). […] Stabilisation buffer (25 mM HEPES, pH=7.4, 2.5 mM CaCl2, 1.0 mM MgCl2, 1% bovine serum albumin, 500 mg/L bacitracin, 2.5 M sucrose) is added and the membrane preparation is stored at −80° C.
(§1) The glucagon binding assay is carried out in opti plates (Polystyrene Microplates, Packard). 50 μL assay buffer (25 mM HEPES, pH=7.5, 2.5 mM CaCl2, 1.0 mM MgCl2, 0.003% Tween-20, 0.005% bacitracin, 0.05% sodium azide) and 5 μL glucagon or test compound (in DMSO) are added to each well. […] Finally 50 μL WGA beads containing 1 mg beads are transferred to the well. The opti plates are incubated for 4 hours on a shaker and then settled for 8-48 hours. The opti plates are counted in a Topcounter. Non-specific binding is determined with 500 nM of glucagon.

human GIP receptor = biological target: T2, human GIP receptor (Homo sapiens, UniProt P48546); test: GIP Binding Assay; details: membranes of BHK cells transfected with human GIP receptor, 125I-GIP, SPA; read-out: GIP Bd Assay IC50
T2 construct: expressed in transfected cells; host or cells: BHK (baby hamster kidney) cells, membrane preparation
T2 sequence (P48546 22-466): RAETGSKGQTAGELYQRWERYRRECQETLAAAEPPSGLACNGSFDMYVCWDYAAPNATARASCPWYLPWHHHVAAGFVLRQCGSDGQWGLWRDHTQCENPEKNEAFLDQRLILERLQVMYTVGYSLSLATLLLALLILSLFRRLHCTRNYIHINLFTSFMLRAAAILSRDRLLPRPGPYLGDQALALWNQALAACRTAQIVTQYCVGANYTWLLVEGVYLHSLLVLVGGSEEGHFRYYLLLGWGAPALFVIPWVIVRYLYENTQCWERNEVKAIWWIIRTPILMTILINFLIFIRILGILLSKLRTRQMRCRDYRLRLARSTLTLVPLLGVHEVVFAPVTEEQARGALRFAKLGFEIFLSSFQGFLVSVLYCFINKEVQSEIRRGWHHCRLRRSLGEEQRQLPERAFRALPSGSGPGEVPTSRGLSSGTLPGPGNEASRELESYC
Protocol: BHK (baby hamster kidney cell line) cells are transfected with the human GIP receptor and a membrane preparation of the cells is prepared.
All steps in the membrane preparation are kept on ice or performed at 4° C. BHK cells are harvested and centrifuged. The pellet is resuspended in homogenisation buffer (25 mM) HEPES, pH=7.4, 2.5 mM CaCl2, 1.0 mM MgCl2, 250 mg/L bacitracin, 0.1 mM Pefabloc), homogenised 2×10 sec using Polytron 10-35 homogenizer (Kinematica) and added the same amount of homogenisation buffer as used for resuspension. After centrifugation (15 min at 2000×g) the supernatant is transferred to cold centrifuge tubes and centrifuged for 45 min at 40.000×g. The pellet is resuspended in homogenisation buffer, homogenised 2×10 sec (Polytron) and additional homogenisation buffer is added. The suspension is centrifuged for 45 min at 40.000×g and the pellet is resuspended in resuspension buffer (25 mM HEPES, pH=7.4, 2.5 mM CaCl2, 1.0 mM MgCl2) and homogenised 2×10 sec. (Polytron). […] Stabilisation buffer (25 mM HEPES, pH=7.4, 2.5 mM CaCl2, 1.0 mM MgCl2, 1% bovine serum albumin, 500 mg/L bacitracin, 2.5 M sucrose) is added and the membrane preparation is stored at −80° C.
as §1, with “The GIP” for “The glucagon”, “μL GIP” for “μL glucagon”, “for 3.5” for “for 4”, “a Top-counter.” for “a Topcounter.”, “of GIP.” for “of glucagon.”

T1 sequence (P47871 26-477): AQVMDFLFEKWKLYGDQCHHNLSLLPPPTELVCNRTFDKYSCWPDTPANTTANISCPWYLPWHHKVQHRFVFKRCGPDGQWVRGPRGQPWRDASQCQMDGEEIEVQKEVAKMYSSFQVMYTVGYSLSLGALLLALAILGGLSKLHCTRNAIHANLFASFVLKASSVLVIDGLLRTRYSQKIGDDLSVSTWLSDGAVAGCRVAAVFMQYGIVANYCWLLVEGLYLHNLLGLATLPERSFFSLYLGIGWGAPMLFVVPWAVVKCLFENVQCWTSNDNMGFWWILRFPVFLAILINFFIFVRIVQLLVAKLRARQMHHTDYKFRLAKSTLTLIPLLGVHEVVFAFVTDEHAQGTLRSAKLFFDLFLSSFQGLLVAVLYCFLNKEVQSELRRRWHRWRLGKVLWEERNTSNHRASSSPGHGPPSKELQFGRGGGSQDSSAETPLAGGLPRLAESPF

| Compound | IC50 (human glucagon receptor) [nM] | IC50 (human GIP receptor) [nM] |
| --- | --- | --- |
| O=C(NC[C@@H](O)C(=O)O)c1ccc(CN(C(=O)Nc2ccc(Cl)c(Cl)c2)c2ccc(C3CCCCC3)cc2)cc1 [Example 42, (R)-3-{4-[1-(4-Cyclohexylphenyl)-3-(3,4-dichlorophenyl)ureidomethyl]benzoylamino}-2-hydroxypropionic acid] | 41 | 340 |
| O=C(NC[C@@H](O)C(=O)O)c1ccc(CN(C(=O)Nc2ccc3c(c2)C(F)(F)OC(F)(F)O3)c2ccc(C3CCCCC3)cc2)cc1 [Example 43, (R)-3-{4-[1-(4-Cyclohexylphenyl)-3-(2,2,4,4-tetrafluoro-4H-benzo[1,3]dioxin-6-yl)ureidomethyl]benzoylamino}-2-hydroxypropionic acid] | 17 | 226 |
| CC(C)(C)c1ccc(N(Cc2ccc(C(=O)NC[C@@H](O)C(=O)O)cc2)C(=O)Nc2ccc3c(c2)C(F)(F)OC(F)(F)O3)cc1 [Example 44, (R)-3-{4-[1-(4-tert-Butylphenyl)-3-(2,2,4,4-tetrafluoro-4H-benzo[1,3]dioxin-6-yl)ureidomethyl]benzoylamino}-2-hydroxypropionic acid] | 39 | 291 |
| CC(C)(C)C1CCC(N(Cc2ccc(C(=O)NC[C@@H](O)C(=O)O)cc2)C(=O)Nc2ccc3c(c2)C(F)(F)OC(F)(F)O3)CC1 (stereo partly drawn) [Example 45, (R)-3-{4-[1-(4-tert-Butylcyclohexyl)-3-(2,2,4,4-tetrafluoro-4H-benzo[1,3]dioxin-6-yl)ureidomethyl]benzoylamino}-2-hydroxypropionic acid] | 61 | 373 |
| CC(C)(C)c1ccc(N(Cc2ccc(C(=O)NC[C@@H](O)C(=O)O)cc2)C(=O)Nc2ccc(F)c(F)c2)cc1 [Example 46, (R)-3-{4-[1-(4-tert-Butylphenyl)-3-(3,4-difluorophenyl)ureidomethyl]benzoylamino}-2-hydroxypropionic acid] | 507 | 1170 |
| O=C(NC[C@@H](O)C(=O)O)c1ccc(CN(C(=O)Nc2ccc(F)c(F)c2)c2ccc(C3CCCCC3)cc2)cc1 [Example 47, (R)-3-{4-[1-(4-Cyclohexylphenyl)-3-(3,4-difluorophenyl)ureidomethyl]benzoylamino}-2-hydroxypropionic acid] | 64 | 665 |
| O=C(NC[C@@H](O)C(=O)O)c1ccc(CN(C(=O)Nc2ccc(F)c(F)c2)c2ccc(C3=CCCCC3)cc2)cc1 [Example 48, (R)-3-{4-[1-(4-Cyclohex-1-enylphenyl)-3-(3,4-difluorophenyl)ureidomethyl]benzoylamino}-2-hydroxypropionic acid] | 182 | > 3000 |
| O=C(NC[C@@H](O)C(=O)O)c1ccc(CN(C(=O)Nc2ccc(Cl)c(C(F)(F)F)c2)c2ccc(C3CCCCC3)cc2)cc1 [Example 49, (R)-3-{4-[3-(4-Chloro-3-trifluoromethylphenyl)-1-(4-cyclohexylphenyl)ureidomethyl]benzoylamino}-2-hydroxypropionic acid] | 25 | 160 |
| O=C(NC[C@@H](O)C(=O)O)c1ccc(CN(C(=O)Nc2ccc(F)c([N+](=O)[O-])c2)c2ccc(C3CCCCC3)cc2)cc1 [Example 50, (R)-3-{4-[1-(4-Cyclohexylphenyl)-3-(4-fluoro-3-nitrophenyl)ureidomethyl]benzoylamino}-2-hydroxypropionic acid] | 119 | > 3000 |
| CC(C)c1ccc(NC(=O)N(Cc2ccc(C(=O)NC[C@@H](O)C(=O)O)cc2)c2ccc(C3CCCCC3)cc2)cc1 [Example 51, (R)-3-{4-[1-(4-Cyclohexylphenyl)-3-(4-isopropylphenyl)ureidomethyl]benzoylamino}-2-hydroxypropionic acid] | 88 | 831 |
| O=C(NC[C@@H](O)C(=O)O)c1ccc(CN(C(=O)Nc2ccc(Cl)c(Cl)c2)c2ccc(C3=CCCCC3)cc2)cc1 [Example 52, (R)-3-{4-[1-(4-Cyclohex-1-enylphenyl)-3-(3,4-dichlorophenyl)ureidomethyl]benzoylamino}-2-hydroxypropionic acid] | 47 | 341 |
| CC(=O)c1ccc(NC(=O)N(Cc2ccc(C(=O)NC[C@@H](O)C(=O)O)cc2)c2ccc(C3CCCCC3)cc2)cc1 [Example 53, (R)-3-{4-[3-(4-Acetylphenyl)-1-(4-cyclohexylphenyl)ureidomethyl]benzoylamino}-2-hydroxypropionic acid] | 390 | > 3000 |
| O=C(NC[C@@H](O)C(=O)O)c1ccc(CN(C(=O)Nc2cc(F)cc(F)c2)c2ccc(C3CCCCC3)cc2)cc1 [Example 55, (R)-3-{4-[1-(4-Cyclohexylphenyl)-3-(3,5-difluorophenyl)ureidomethyl]benzoylamino}-2-hydroxypropionic acid] | 50 | 427 |
| CC(C)(C)C1CCC(N(Cc2ccc(C(=O)NC[C@@H](O)C(=O)O)cc2)C(=O)Cc2ccc(OC(F)(F)F)cc2)CC1 (stereo partly drawn) [Example 56, (R)-3-[4-({(4-tert-Butylcyclohexyl)-[2-(4-trifluoromethoxyphenyl)acetyl]amino}methyl)benzoylamino]-2-hydroxypropionic acid] | 228 | 1370 |
| CC(C)(C)C1CCC(N(Cc2ccc(C(=O)NC[C@@H](O)C(=O)O)cc2)C(=O)Cc2cc(F)cc(C(F)(F)F)c2)CC1 (stereo partly drawn) [Example 57, (R)-3-[4-({(4-tert-Butylcyclohexyl)-[2-(3-fluoro-5-trifluoromethylphenyl)acetyl]amino}methyl)benzoylamino]-2-hydroxypropionic acid] | 439 | > 3000 |
| O=C(NC[C@@H](O)C(=O)O)c1ccc(CN(CC(c2ccccc2)c2ccccc2)C(=O)Cc2cc(F)cc(C(F)(F)F)c2)cc1 [Example 58, (R)-3-[4-({(2,2-Diphenylethyl)-[2-(3-fluoro-5-trifluoromethylphenyl)acetyl]amino}methyl)benzoylamino]-2-hydroxypropionic acid] | 957 | > 3000 |
| O=C(NC[C@@H](O)C(=O)O)c1ccc(CN(CC(c2ccccc2)c2ccccc2)C(=O)c2csc3ccc(Cl)cc23)cc1 [Example 59, (R)-3-(4-{[(5-Chlorobenzo[b]thiophene-3-carbonyl)-(2,2-diphenylethyl)amino]methyl}benzoylamino)-2-hydroxypropionic acid] | 594 | > 3000 |
| O=C(NC[C@@H](O)C(=O)O)c1ccc(CN(CC(c2ccccc2)c2ccccc2)C(=O)Cc2ccc(OC(F)(F)F)cc2)cc1 [Example 60, (R)-3-[4-({(2,2-Diphenylethyl)-[2-(4-trifluoromethoxyphenyl)acetyl]amino}methyl)benzoylamino]-2-hydroxypropionic acid] | 1020 | > 3000 |
